Data set [1] has as its target T1, recombinant human 17β-HSD2 (Homo sapiens, UniProt P37059).
T1 construct: made in house; host or cells: Sd9 (Sf9) insect cells, baculovirus (Bac to Bac Expression System)
T1 sequence (P37059 1-387): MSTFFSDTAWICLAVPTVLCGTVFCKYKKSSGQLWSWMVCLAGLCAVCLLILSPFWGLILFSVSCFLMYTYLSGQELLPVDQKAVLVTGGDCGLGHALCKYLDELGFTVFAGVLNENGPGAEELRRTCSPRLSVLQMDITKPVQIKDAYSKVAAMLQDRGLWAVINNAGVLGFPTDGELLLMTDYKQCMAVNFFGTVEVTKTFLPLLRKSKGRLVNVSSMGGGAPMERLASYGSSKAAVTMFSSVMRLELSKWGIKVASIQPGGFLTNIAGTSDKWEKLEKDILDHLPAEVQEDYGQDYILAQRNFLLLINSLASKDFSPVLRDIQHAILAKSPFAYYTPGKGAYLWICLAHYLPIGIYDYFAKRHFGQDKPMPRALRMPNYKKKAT
Nature of the data set: Inhibition of recombinant human 17β-HSD2 (estradiol to estrone conversion, HPLC/radioactivity). Type of data set: biochemical. The conditions noted are these: compound 1 μM; 50 nM estradiol, 1 mM NADH, 30 min RT. A digest of the protocol:
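Membrane extract of Sf9 cells expressing recombinant human 17β-HSD2 (4 μg/ml), in 20 mM KH2PO4 pH 8.5 with 50 nM ^3H-spiked estradiol and 1 mM NADH, 30 min at RT, 1% DMSO. Compound at 1 μM or 0.1 μM; estrone formation by HPLC radioactivity, % inhibition relative to uninhibited conversion.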

Data set [2] deals with HSD1 enzyme that is expressed in rabbit placenta tissue. Nature of the data set: Inhibition of E1 to E2 conversion in rabbit placenta tissue homogenate. The conditions noted are these: compound 100 nM, 30 nM estrone, 1 mM β-NADPH, 30 min. Type of data set: biochemical. A digest of the protocol:
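Rabbit placenta homogenate (20 mM KH2PO4, 1 mM EDTA, pH 7.4) incubated 30 min with 1 mM β-NADPH, 30 nM estrone plus 5 nM [3H]-estrone tracer, and inhibitor at 1 μM or 0.1 μM (1% DMSO). Stopped with TCA; estrone and estradiol resolved by HPLC with scintillation counting; % inhibition = 100 − % conversion relative to uninhibited control.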

Data set [3] can be described thus: Metabolic stability assay, human hepatocyte incubations. Type of data set: in vitro ADME. Particulars: compound 1 μM, human hepatocytes, 0-60 min at 37° C.; read-out: Human hepatocytes MetStab T½ min. How it is done: Compound stock solutions of the invention were prepared in […]. Final concentration of DMSO was adjusted to 1% in all samples. The in vitro metabolic stability of the compounds of the invention was determined for exemplified compounds using human hepatocyte incubations; study compounds at concentration of 1 μM were incubated 0, 10, 20, 40 and 60 min at 37° C. Samples were collected at all time points and compounds were detected by LC-MS/MS analysis. The percent compound remaining is calculated by comparing the peak area of the parent compound at each time point to time zero. In vitro metabolic stability was determined as half life (T1/2), which was determined by regression analysis of the percent parent disappearance vs. time curve.

The structures appear in SMILES notation.

As usually defined, the inhibition is the drop in the measured response relative to a control, in per cent. Consider `C[C@]12CCC3c4ccc(F)cc4CCC3C1[C@H](CCC(=O)Nc1ccc(F)cn1)c1c[nH]nc12` (stereo partly drawn) [Compound 99, 3-((8aS,12S)-4-fluoro-8a-methyl-1,2,6b,7,8,8a,10,12,12a,12b-decahydronaphtho[2′,1′:4,5]indeno[1,2-c]pyrazol-12-yl)-N-(5-fluoropyridin-2-yl)propanamide], for which, in data set [1], the inhibition at 1 µM was found to be 4%. Moreover, in data set [2], the “Rabbit placenta inhibition % @100 nM” value worked out at 10%. Besides, in data set [3], the half-life at 1 μM came to 97 min.
On to `COc1ccnc(NC(=O)CC[C@@H]2c3c[nH]nc3[C@@]3(C)CCC4c5ccc(F)cc5CCC4C23)c1` (stereo partly drawn) [Compound 90, 3-((8aS,12S)-4-fluoro-8a-methyl-1,2,6b,7,8,8a,10,12,12a,12b-decahydronaphtho[2′,1′:4,5]indeno[1,2-c]pyrazol-12-yl)-N-(4-methoxypyridin-2-yl)propanamide], for which, in data set [1], the inhibition at 1 µM was found to be 3%. Also, the “Rabbit placenta inhibition % @100 nM” value in data set [2] is listed as 30%. For the same compound, the half-life at 1 μM in data set [3] was found to be 77 min.
For `C[C@]12CCC3c4ccccc4CCC3C1[C@H](CCC(=O)Nc1ccc(F)cn1)c1c[nH]nc12` (stereo partly drawn) [Compound 159, N-(5-fluoropyridin-2-yl)-3-((8aS,12S)-8a-methyl-1,2,6b,7,8,8a,10,12,12a,12b-decahydronaphtho[2′,1′:4,5]indeno[1,2-c]pyrazol-12-yl)propanamide], in that order: 3%, 23% and 77 min.
For `CN1CCN(c2ccc(NC(=O)CC[C@@H]3c4c[nH]nc4[C@@]4(C)CCC5c6cccc(F)c6CCC5C34)nc2)CC1` (stereo partly drawn) [Compound 42, 3-((8aS,12S)-3-fluoro-8a-methyl-1,2,6b,7,8,8a,10,12,12a,12b-decahydronaphtho[2′,1′:4,5]indeno[1,2-c]pyrazol-12-yl)-N-(5-(4-methylpiperazin-1-yl)pyridin-2-yl)propanamide], in that order: 34%, 82% and 47 min.
In the case of `CCN(CC)C(=O)CC[C@@H]1c2c[nH]nc2[C@@]2(C)CCC3c4cccc(F)c4CCC3C12` (stereo partly drawn) [Compound 216, N,N-diethyl-3-((8aS,12S)-3-fluoro-8a-methyl-1,2,6b,7,8,8a,10,12,12a,12b-decahydronaphtho[2′,1′:4,5]indeno[1,2-c]pyrazol-12-yl)propanamide], the inhibition at 1 µM in data set [1] came out at 6%. Also, the “Rabbit placenta inhibition % @100 nM” value in data set [2] is 10%. Besides, in data set [3], the half-life at 1 μM was 8 min.
For `C[C@]12CCC3c4cccc(F)c4CCC3C1[C@H](CCC(=O)Nc1ccccn1)c1c[nH]nc12` (stereo partly drawn) [Compound 18, 3-((8aS,12S)-3-fluoro-8a-methyl-1,2,6b,7,8,8a,10,12,12a,12b-decahydronaphtho[2′,1′:4,5]indeno[1,2-c]pyrazol-12-yl)-N-(pyridin-2-yl)propanamide], in that order: 1%, 44% and 41 min.
Taken in the same sequence, the figures for `C[C@]12CCC3c4ccc(F)cc4CCC3C1[C@H](CCC(=O)Nc1ccc(N3CCOCC3)cn1)c1c[nH]nc12` (stereo partly drawn) [Compound 96, 3-((8aS,12S)-4-fluoro-8a-methyl-1,2,6b,7,8,8a,10,12,12a,12b-decahydronaphtho[2′,1′:4,5]indeno[1,2-c]pyrazol-12-yl)-N-(5-morpholinopyridin-2-yl)propanamide] were 5%, 42% and 75 min.
For `COc1ccnc(NC(=O)CC[C@@H]2c3c[nH]nc3[C@@]3(C)CCC4c5cccc(F)c5CCC4C23)c1` (stereo partly drawn) [Compound 48, 3-((8aS,12S)-3-fluoro-8a-methyl-1,2,6b,7,8,8a,10,12,12a,12b-decahydronaphtho[2′,1′:4,5]indeno[1,2-c]pyrazol-12-yl)-N-(4-methoxypyridin-2-yl)propanamide], in that order: 5%, 57% and 34 min.
Take `C[C@]12CCC3c4cccc(F)c4CCC3C1[C@H](CCC(=O)N1CCCC1)c1c[nH]nc12` (stereo partly drawn) [Compound 210, 3-((8aS,12S)-3-fluoro-8a-methyl-1,2,6b,7,8,8a,10,12,12a,12b-decahydronaphtho[2′,1′:4,5]indeno[1,2-c]pyrazol-12-yl)-1-(pyrrolidin-1-yl)propan-1-one]: the inhibition at 1 µM in data set [1] stood at 0%. For the same compound, the “Rabbit placenta inhibition % @100 nM” value in data set [2] came to 19%. Moreover, the half-life at 1 μM in data set [3] was 11 min.
Regarding `COc1ccnc(NC(=O)CC[C@@H]2c3c[nH]nc3[C@@]3(C)CCC4c5ccccc5CCC4C23)c1` (stereo partly drawn) [Compound 165, N-(4-methoxypyridin-2-yl)-3-((8aS,12S)-8a-methyl-1,2,6b,7,8,8a,10,12,12a,12b-decahydronaphtho[2′1′:4,5]indeno[1,2-c]pyrazol-12-yl)propanamide], in data set [1], the inhibition at 1 µM is -2%. Besides, the “Rabbit placenta inhibition % @100 nM” value in data set [2] amounted to 34%. Also, the half-life at 1 μM in data set [3] is 44 min.
`CC(C)c1ccc(NC(=O)CC[C@@H]2c3c[nH]nc3[C@@]3(C)CCC4c5ccccc5CCC4C23)nc1` (stereo partly drawn) [Compound 138, N-(5-isopropylpyridin-2-yl)-3-((8aS,12S)-8a-methyl-1,2,6b,7,8,8a,10,12,12a,12b-decahydronaphtho[2′,1′:4,5]indeno[1,2-c]pyrazol-12-yl)propanamide]: the inhibition at 1 µM in data set [1] amounted to 7%. For the same compound, the “Rabbit placenta inhibition % @100 nM” value in data set [2] is recorded as 18%. In data set [3], the half-life at 1 μM stood at 51 min.
For `C[C@]12CCC3c4cccc(F)c4CCC3C1[C@H](CCC(=O)N1CCC3(CCOCC3)C1)c1c[nH]nc12` (stereo partly drawn) [Compound 219, 3-((8aS,12S)-3-fluoro-8a-methyl-1,2,6b,7,8,8a,10,12,12a,12b-decahydronaphtho[2′,1′:4,5]indeno[1,2-c]pyrazol-12-yl)-1-(8-oxa-2-azaspiro[4.5]decan-2-yl)propan-1-one], in that order: 3%, 14% and 7 min.
For `C[C@]12CCC3c4ccccc4CCC3C1[C@H](CCC(=O)Nc1ccccn1)c1c[nH]nc12` (stereo partly drawn) [Compound 171, 3-((8aS,12S)-8a-methyl-1,2,6b,7,8,8a,10,12,12a,12b-decahydronaphtho[2′,1′:4,5]indeno[1,2-c]pyrazol-12-yl)-N-(pyridin-2-yl)propanamide], in that order: -1%, 27% and 73 min.
Turning to `C[C@]12CCC3c4ccc(Cl)cc4CCC3C1[C@H](CCC(=O)Nc1cc3c([nH]c1=O)CCCC3)c1c[nH]nc12` (stereo partly drawn) [Compound 123, 3-((8aS,12S)-4-chloro-8a-methyl-1,2,6b,7,8,8a,10,12,12a,12b-decahydronaphtho[2′,1′:4,5]indeno[1,2-c]pyrazol-12-yl)-N-(2-oxo-1,2,5,6,7,8-hexahydroquinolin-3-yl) propanamide], the inhibition at 1 µM in data set [1] was found to be 8%. In addition, the “Rabbit placenta inhibition % @100 nM” value in data set [2] was determined as 17%. Moreover, the half-life at 1 μM in data set [3] came to 155 min.
Consider `Cc1ccnc(NC(=O)CC[C@@H]2c3c[nH]nc3[C@@]3(C)CCC4c5ccc(F)cc5CCC4C23)c1` (stereo partly drawn) [Compound 93, 3-((8aS,12S)-4-fluoro-8a-methyl-1,2,6b,7,8,8a,10,12,12a,12b-decahydronaphtho[2′,1′:4,5]indeno[1,2-c]pyrazol-12-yl)-N-(4-methylpyridin-2-yl)-propanamide], for which, in data set [1], the inhibition at 1 µM turned out to be 4%. Further, the “Rabbit placenta inhibition % @100 nM” value in data set [2] turned out to be 31%. In data set [3], the half-life at 1 μM came out at 66 min.
`COc1ccc(NC(=O)CC[C@@H]2c3c[nH]nc3[C@@]3(C)CCC4c5ccccc5CCC4C23)nn1` (stereo partly drawn) [Compound 156, N-(6-methoxypyridazin-3-yl)-3-((8aS,12S)-8a-methyl-1,2,6b,7,8,8a,10,12,12a,12b-decahydronaphtho[2′,1′:4,5]indeno[1,2-c]pyrazol-12-yl)propanamide]: the inhibition at 1 µM in data set [1] is -3%. The “Rabbit placenta inhibition % @100 nM” value in data set [2] is listed as 56%. Further, the half-life at 1 μM in data set [3] was 93 min.
For `C[C@]12CCC3c4cccc(F)c4CCC3C1[C@H](CCC(=O)N1CCNC(=O)C1)c1c[nH]nc12` (stereo partly drawn) [Compound 24, 4-(3-((8aS,12S)-3-fluoro-8a-methyl-1,2,6b,7,8,8a,10,12,12a,12b-decahydronaphtho[2′,1′:4,5]indeno[1,2-c]pyrazol-12-yl)propanoyl)piperazin-2-one], in that order: 1%, 27% and 33 min.

These data come from patent US20220041647A1, “ESTRA-1,3,5(10)-TRIENE COMPOUNDS CONDENSED IN POSITION 16(17) WITH A PYRAZOLE RING AS INHIBITORS OF 17-HSD1” (FORENDO PHARMA LTD, priority 2018, published 2022).
